The values that follow come from patent US20220054494A1, “METHODS FOR TREATING BLADDER AND URETHRA DYSFUNCTION AND DISEASE” (University of Pittsburgh - Of the Commonwealth System of …, priority 2019, published 2022).

The subject of one assay is cathepsin B. As to the kind of experiment: Western immunoblotting, cathepsin B. Type of assay: in vivo, rat. The settings on record: aged rats; oral 8-AG 5 mg/kg/day, 6 weeks. The method, then: Western immunoblotting: Following the testing paradigms, rats were deeply anesthetized, bladders as well as the proximal urethra were removed, and one half of each preparation was homogenized using Lysing Matrix D in a FastPrep 24 instrument (MP Biomedicals, Solon, Ohio) in HBSS [5 mM KCl, 0.3 mM KH2PO4, 138 mM NaCl, 4 mM NaHO3, 0.3 mM Na2HCO3, 0.3 mM Na2HPO4, 5.6 mM glucose, and 10 mM Hepes, pH 7.4 containing a complete protease inhibitor cocktail (1 tablet/10 ml, ROCHE®, Indianapolis, Ind.) and a phosphatase inhibitor cocktail (SIGMA®, 1:100)]. After centrifugation (13000 rpm; 15 min at 4° C.), the membrane protein fraction was prepared by suspending the membrane pellets in lysis buffer containing 0.3 M NaCl, 50 mM Tris-HCl (pH 7.6), and 0.5% Triton X-100 and the same concentration of protease inhibitors as above. The suspensions were incubated on ice and centrifuged (13000 rpm; 15 min at 4° C.). The protein concentrations of the combined supernatants were determined using the PIERCE® BCA protein assay (THERMO SCIENTIFIC®, Rockford, Ill.). […] As a loading control, total protein per sample was determined using Bio-Rad Stain Free SDS-PAGE gel technology. UV-activated protein fluorescence was imaged on a CHEMIDOC® MP (BIO-RAD®). […] The volume (intensity) of each protein species was determined and normalized to total protein using Image Lab software (BIO-RAD®). […]

A further assay has as its system bladder wall. As to the kind of experiment: Bladder volume measurements (bladder wall volume / thickness). Type of assay: in vivo, rat. On the procedure: Bladder volume measurements: Changes in bladder wall thickness in all groups (young, aged, and aged+treatment) were measured by placing displacement markers on the bladder surface (in situ) while volume measurements were recorded. Custom computer algorithms were used to calculate longitudinal, circumferential, and area strain from measurements of surface marker positions.

Consider `Nc1nc2[nH]c(N)nc2c(=O)[nH]1` [8-AG, 8-Aminoguanine], for which, in the assay on cathepsin B, the “cathepsin B expression in urethra” value is listed as “trend toward reversal”. In the assay on bladder wall (aged Fisher 344 rats, 8-AG 5 mg kg/day via drinking water, 1 month), the bladder wall volume result is recorded as “restored to that of a younger state”. Besides, the “bladder wall width / thickness” value with bladder wall (aged rats, oral 8-AG 5 mg/kg/day, 6 weeks) is “restored to that of a younger state”.
